Source: ChEMBL document CHEMBL1155610, “A new indanone from the marine cyanobacterium Lyngbya majuscula that inhibits hypoxia-induced activation of the VEGF promoter in Hep3B cells” (J Nat Prod, 2000)
Active and inactive are the calls of the source. The calls are words filed in the database; no cut-off is given here.

Assays:
Format in all cases: functional, cell-based
Hep 3B2 [1] = test: Inhibition of hypoxia-induced activation of VEGF gene promoter in human Hep3B cells after 18 hrs by luciferase reporter gene assay
Hep 3B2 [2] = test: Growth inhibition of human Hep3B cells after 18 hrs
Hep 3B2 [3] = test: Effect on luciferase reporter gene expression in human Hep3B cells after 18 hrs
Hep 3B2 [4] = test: Inhibition of hypoxia-induced VEGF165 protein secretion in human Hep3B cells after 18 hrs by ELISA

In the case of `COC1CC(=O)c2c(C=O)cc(C)cc21` (centres undefined), the IC50 (Hep 3B2 [1]) is reported as 25 µM, the Activity (Hep 3B2 [2]) is reported as “inactive” and the Activity (Hep 3B2 [3]) is reported as “inactive”. For the same molecule, the Activity (Hep 3B2 [4]) was “inactive”.
